The C3SDB collision cross section collection
Where “and” joins values, the source holds several entries; their conditions need not be identical. Identical values can stand only once.

Conditions: [M+H]+; instrument: DT; single field

collision cross section (N2) | SMILES
285.62 Å² and 287.54 Å² | CCCCCC/C=C\CCCCCCCCCC(=O)OC[C@H](COP(=O)([O-])OCC[N+](C)(C)C)OC(=O)CCCCCCCCCCCCCCC [PC(34:1)]
289.07 Å² and 290.41 Å² | CCCCCCCCCCCCCCCCCCCCC(=O)O[C@H](COC(=O)CCCCCCCCCCCC)COP(=O)([O-])OCC[N+](C)(C)C [PC(34:0)]

Same assay, conditions: [M+Na]+; instrument: DT; single field

collision cross section (N2) [Å²] | SMILES
288.39 | CCCCCCCCCCCCCCCCCCCCC(=O)O[C@H](COC(=O)CCCCCCCCCCCC)COP(=O)([O-])OCC[N+](C)(C)C [PC(34:0)]

Conditions: [M+Na]+; instrument: DT; stepped-field

collision cross section (N2) [Å²] | SMILES
290 | CCCCC/C=C\C/C=C\CCCCCCCCCC(=O)O[C@H](COC(=O)CCCCCCC/C=C\C/C=C\CCCCC)COP(=O)(O)OCCN [PE(38:4)]
285.7 | CCCCC/C=C\C/C=C\CCCCCCCCCC(=O)O[C@H](COC(=O)CCCCCCCCCCCCCCC)COP(=O)(O)OCCN [PE(36:2)]

Conditions: [M+H]+; instrument: DT; stepped-field

collision cross section (N2) [Å²] | SMILES
300.3 | CCCCCC/C=C\CCCCCCCCCC(=O)OC[C@H](COP(=O)([O-])OCC[N+](C)(C)C)OC(=O)CCCCCCCCCCCCCCC [PC(34:1)]
301.1 | CCCCCCCCCCCCCCCCCCCCC(=O)O[C@H](COC(=O)CCCCCCCCCCCC)COP(=O)([O-])OCC[N+](C)(C)C [PC(34:0)]
293 | CCCCC/C=C\C/C=C\CCCCCCCCCC(=O)O[C@H](COC(=O)CCCCCCCCCCCCCCC)COP(=O)(O)OCCN [PE(36:2)]

Same assay, conditions: [M-H]-; instrument: DT; stepped-field

collision cross section (N2) | SMILES
265.6 Å² | CCCCCCCCCCCCCCCCCC(=O)OC[C@H](COP(=O)(O)OC[C@@H](O)CO)OC(=O)CCCCCCCCCCC [PG(30:0)]
282.9 Å² and 284.1 Å² | CCCCCC/C=C\CCCCCCCC(=O)OC[C@H](COP(=O)(O)OC[C@@H](O)CO)OC(=O)CCCCCCCCCCCCCCCCCCC [PG(36:1)]
273.7 Å² | CCCCCCCC/C=C\CCCCCCCCCC(=O)O[C@H](COC(=O)CCCCCCCCCCCC)COP(=O)(O)OC[C@@H](O)CO [PG(33:1)]
278.4 Å² and 277.4 Å² | CCCCC/C=C\C/C=C\CCCCCCCCCC(=O)O[C@H](COC(=O)CCCCCCC/C=C\C/C=C\CCCCC)COP(=O)(O)OCCN [PE(38:4)]
276 Å² and 275.9 Å² | CCCCC/C=C\C/C=C\CCCCCCCCCC(=O)O[C@H](COC(=O)CCCCCCCCCCCCCCC)COP(=O)(O)OCCN [PE(36:2)]
280.1 Å² | CCCC/C=C\CCCCCCCC(=O)OC[C@H](COP(=O)(O)OC[C@@H](O)CO)OC(=O)CCCCCCCCCCCCCCCCCCCC [PG(35:1)]

Conditions: M+NH4]+; instrument: TW; calibrated with phosphatidylcholines (ESI+) and phosphatidylethanolamines (ESI-)

collision cross section (N2) [Å²] | SMILES
317.4 | CCCCCCCCCCCCC=CCC=CCC(=O)OC[C@H](CO[C@@H]1O[C@H](CO[C@H]2O[C@H](CO)[C@H](O)C(O)C2O)[C@H](O)C(O)C1O)OC(=O)CC=CCCCCCCCCCCCCCC (stereo partly specified) [DGDG(35:1)]

Same assay, conditions: [M+CH3COO]-; instrument: TW; calibrated with phosphatidylcholines (ESI+) and phosphatidylethanolamines (ESI-)

collision cross section (N2) [Å²] | SMILES
286.3 | CC/C=C\C/C=C\C/C=C\CCCCCCCC(=O)OC[C@H](CO[C@@H]1O[C@H](CO)[C@H](O)C(O)C1O)OC(=O)CCCCCCC/C=C\C/C=C\C/C=C\CC (stereo partly specified) [MGDG(18:3/18:3)]

Same assay, conditions: [M+Cl]-; instrument: TW; calibrated with phosphatidylcholines (ESI+) and phosphatidylethanolamines (ESI-)

collision cross section (N2) [Å²] | SMILES
278.5 | CC/C=C\C/C=C\C/C=C\CCCCCCCC(=O)OC[C@H](CO[C@@H]1O[C@H](CO)[C@H](O)C(O)C1O)OC(=O)CCCCCCC/C=C\C/C=C\C/C=C\CC (stereo partly specified) [MGDG(18:3/18:3)]

Same assay, conditions: [M+H]+; instrument: TW; calibrated with phosphatidylcholines (ESI+) and phosphatidylethanolamines (ESI-)

collision cross section (N2) [Å²] | SMILES
287.8 | CCCCCCCCCCCCCCC(=O)OCC(COP(=O)([O-])OCC(O)COC(=O)C(N)CCCC[NH3+])OC(=O)CCCCCCCCCCCCC (stereo unspecified) [LysPG(29:0)]
298.4 | CCCCCC/C=C\CCCCCCCCCC(=O)OCC(COP(=O)([O-])OCC(O)COC(=O)C(N)CCCC[NH3+])OC(=O)CCCCCCC/C=C\CCCCCC (stereo unspecified) [LysPG(34:2)]
305.4 | CCCCCCCCCCCCCCCCCCCC(=O)OC(COC(=O)CCCCCCCCCCCCCC)COP(=O)([O-])OCC(O)COC(=O)C(N)CCCC[NH3+] (stereo unspecified) [LysPG(35:0)]

Same assay, conditions: [M+K]+; instrument: TW; calibrated with phosphatidylcholines (ESI+) and phosphatidylethanolamines (ESI-)

collision cross section (N2) [Å²] | SMILES
282.5 | CC/C=C\C/C=C\C/C=C\CCCCCCCC(=O)OC[C@H](CO[C@@H]1O[C@H](CO)[C@H](O)C(O)C1O)OC(=O)CCCCCCC/C=C\C/C=C\C/C=C\CC (stereo partly specified) [MGDG(18:3/18:3)]

Same assay, conditions: [M+NH4]+; instrument: TW; calibrated with phosphatidylcholines (ESI+) and phosphatidylethanolamines (ESI-)

collision cross section (N2) [Å²] | SMILES
308.5 | CCCCCCCCCCCCCCCC(=O)OC[C@H](CO[C@@H]1O[C@H](CO[C@H]2O[C@H](CO)[C@H](O)C(O)C2O)[C@H](O)C(O)C1O)OC(=O)CCCCCCCCCCCCCCC (stereo partly specified) [DGDG(32:0)]
281.2 | CC/C=C\C/C=C\C/C=C\CCCCCCCC(=O)OC[C@H](CO[C@@H]1O[C@H](CO)[C@H](O)C(O)C1O)OC(=O)CCCCC/C=C\CCCCCCCC (stereo partly specified) [MGDG(16:1/18:3)]
326.8 | CCCCCCCCCCCCCCCCCC(=O)OC[C@H](CO[C@@H]1O[C@H](CO[C@H]2O[C@H](CO)[C@H](O)C(O)C2O)[C@H](O)C(O)C1O)OC(=O)CCCCCCCCCCCCCCCCC (stereo partly specified) [DGDG(36:0)]
295.4 | CCCCCCCCCCCC=CCC(=O)OC[C@H](CO[C@@H]1O[C@H](CO[C@H]2O[C@H](CO)[C@H](O)C(O)C2O)[C@H](O)C(O)C1O)OC(=O)CC=CCCCCCCCCCCC (stereo partly specified) [DGDG(30:2)]
284.1 | CC/C=C\C/C=C\C/C=C\CCCCCCCC(=O)OC[C@H](CO[C@@H]1O[C@H](CO)[C@H](O)C(O)C1O)OC(=O)CCCCCCC/C=C\C/C=C\C/C=C\CC (stereo partly specified) [MGDG(18:3/18:3)]

Same assay, conditions: [M+Na]+; instrument: TW; calibrated with phosphatidylcholines (ESI+) and phosphatidylethanolamines (ESI-)

collision cross section (N2) [Å²] | SMILES
306.7 | CCCCCCCCCCCCCCCC(=O)OC[C@H](CO[C@@H]1O[C@H](CO[C@H]2O[C@H](CO)[C@H](O)C(O)C2O)[C@H](O)C(O)C1O)OC(=O)CCCCCCCCCCCCCCC (stereo partly specified) [DGDG(32:0)]
278.6 | CC/C=C\C/C=C\C/C=C\CCCCCCCC(=O)OC[C@H](CO[C@@H]1O[C@H](CO)[C@H](O)C(O)C1O)OC(=O)CCCCC/C=C\CCCCCCCC (stereo partly specified) [MGDG(16:1/18:3)]
291.7 | CCCCCCCCCCCC=CCC(=O)OC[C@H](CO[C@@H]1O[C@H](CO[C@H]2O[C@H](CO)[C@H](O)C(O)C2O)[C@H](O)C(O)C1O)OC(=O)CC=CCCCCCCCCCCC (stereo partly specified) [DGDG(30:2)]
281 | CC/C=C\C/C=C\C/C=C\CCCCCCCC(=O)OC[C@H](CO[C@@H]1O[C@H](CO)[C@H](O)C(O)C1O)OC(=O)CCCCCCC/C=C\C/C=C\C/C=C\CC (stereo partly specified) [MGDG(18:3/18:3)]

Same assay, conditions: [M-H]-; instrument: TW; calibrated with phosphatidylcholines (ESI+) and phosphatidylethanolamines (ESI-)

SMILES | collision cross section (N2) [Å²]
CCCCCCCCCCCCCCCCCCC(=O)OC[C@H](COP(=O)(O)O)OC(=O)CCCCCCCCCCCC [PA(16:0/16:0)] | 251.4
CCCCCCCCCCCCCCCCC(=O)OC[C@H](COP(=O)(O)O)OC(=O)CCCCCCCCCCCC [PA(30:0)] | 244.9
CCCCCCCCCCCCCCCCCCC(=O)OC[C@H](COP(=O)(O)O)OC(=O)CCCCCCCCCCCC [PA(32:0)] | 251.1

Further lines, results first:

collision cross section (N2) [Å²] | SMILES
264.8 | CCCCC/C=C\C/C=C\C/C=C\CCCCC(=O)O[C@H](CO/C=C\CCCCCCCCCCCCCC)COP(=O)(O)OC[C@@H](O)CO [PG(p34:3)]
262 | CCCCCCCCCCCCCCCCCCC(=O)O[C@H](COC(=O)CCCCCCCCCCC)COP(=O)(O)OC[C@@H](O)CO [PG(31:0)]
258.5 | CCCCC/C=C\CCCCCCCC(=O)O[C@H](CO/C=C\CCCCCCCCCCCCCC)COP(=O)(O)OC[C@@H](O)CO [PG(p31:1)]
264.1 | CCCCCCCCCCCCCCCCCCC(=O)O[C@H](COC(=O)CCCCCCCCCCCCCCCC)COP(=O)(O)O [PA(36:0)]
257.9 | CCCCC/C=C\C/C=C\CCCCCCCC(=O)O[C@H](COC(=O)CCCCCCCCCCCC)COP(=O)(O)OC[C@@H](O)CO [PG(31:2)]
258.7 | CCCCCCCCCCCCCCCCCC(=O)OC[C@H](COP(=O)(O)OC[C@@H](O)CO)OC(=O)CCCCCCCCCCC [PG(30:0)]
261.4 | CCCC/C=C\CCCCCCCC(=O)OC[C@H](COP(=O)(O)OC[C@@H](O)CO)OC(=O)CCCCCCC/C=C\CCCCCCCC [PG(32:2)]
275.7 | CCCCCC/C=C\CCCCCCCC(=O)OC[C@H](COP(=O)(O)OC[C@@H](O)CO)OC(=O)CCCCCCCCCCCCCCCCCCC [PG(36:1)]
